Experiment [1] is described as follows: Inhibition of protein phosphatase 2A in mouse FL5.12 cells assessed as reduction in cell viability incubated for 48 hrs by propidium iodide staining based flow cytometric analysis. The conditions noted are these: FL5.12, 48 h.
In experiment [2] the test system is FL5.12. Description: Inhibition of protein phosphatase 2A in mouse FL5.12 cells assessed as induction of surface nutrient transporter loss by measuring downregulation of CD98 expression level at 2.5 uM preincubated with PP2A inhibitor calyculin A for 60 mins followed by compound addition and measured after 2 hrs by flow cytometric analysis relative to control. Also on record: scale not given: the % may be the effect or the level left. The class given is cell-based. A general note: A flow cytometer gives signals particle by particle.

Experiment [3] has as its system FL5.12. The experiment in a line: Inhibition of protein phosphatase 2A in mouse FL5.12 cells assessed as induction of surface nutrient transporter loss by measuring downregulation of CD98 expression level at 10 uM preincubated with PP2A inhibitor calyculin A for 60 mins followed by compound addition and measured after 2 hrs by flow cytometric analysis relative to control. Set-up: scale not given: the % may be the effect or the level left. The class given is cell-based.

Experiment [4] concerns FL5.12. The experiment in a line: Induction of vacuolation in mouse FL5.12 cells assessed as vacuolation score at 2.5 uM preincubated with PP2A inhibitor calyculin A for 60 mins followed by compound addition and measured after 2 hrs by fluorescence microscopic method. The class given is functional.
Experiment [5] relates to FL5.12. Description: Induction of vacuolation in mouse FL5.12 cells assessed as vacuolation score at 10 uM preincubated with PP2A inhibitor calyculin A for 60 mins followed by compound addition and measured after 2 hrs by fluorescence microscopic method. The class given is functional.
The species named for a further experiment is Mus musculus. Description: Ratio of IC50 for SH-BC-893 to IC50 for test compound for inhibition of protein phosphatase 2A in mouse FL5.12 cells assessed as reduction in cell viability incubated for 48 hrs by propidium iodide staining based flow cytometric analysis.
The test system of experiment [6] is FL5.12. The experiment in a line: Inhibition of protein phosphatase 2A in mouse FL5.12 cells assessed as induction of surface nutrient transporter loss by measuring downregulation of CD98 expression level at 40 uM preincubated with PP2A inhibitor calyculin A for 60 mins followed by compound addition and measured after 2 hrs by flow cytometric analysis relative to control. The class given is cell-based. Also on record: scale not given: the % may be the effect or the level left.

For experiment [7], the system named is FL5.12. The experiment in a line: Induction of vacuolation in mouse FL5.12 cells assessed as vacuolation score at 40 uM preincubated with PP2A inhibitor calyculin A for 60 mins followed by compound addition and measured after 2 hrs by fluorescence microscopic method. The class given is functional.

The values that follow come from ChEMBL document CHEMBL4346762, “Design, synthesis and anticancer activity of constrained sphingolipid-phenoxazine/phenothiazine hybrid constructs targeting protein phosphatase 2A” (Bioorg Med Chem Lett, 2019).

For `CCCCCCCCc1ccc([C@H]2CCN[C@@H]2COCCCCN2c3ccccc3Oc3ccccc32)cc1.Cl`, the IC50 – broadly, the concentration that gives 50% inhibition – in experiment [1] was determined as 5.8 µM. Moreover, the Activity in the experiment on FL5.12 [2] was determined as 5%; in the experiment with FL5.12 [3], 15%; in the experiment on FL5.12 [4] it was 7; in the experiment with FL5.12 [5], 15. Further, the Ratio IC50 in the experiment listed under Mus musculus was 2 to 3.

Regarding `CCCCCCCCc1ccc([C@H]2CCN[C@@H]2COCCCC(O)c2cnc(OC)nc2OC)cc1.Cl` (some centres not stated), the IC50 in experiment [1] was determined as 2.7 µM. In addition, the Activity with FL5.12 [2] was determined as 10%; in the experiment with FL5.12 [3] it was 60%; in the experiment with FL5.12 [4], 8; in the experiment on FL5.12 [5], 15.

Regarding `OCCN1CCN(CCCN2c3ccccc3Sc3ccc(Cl)cc32)CC1` [PERPHENAZINE], the IC50 in experiment [1] turned out to be 4.8 µM. Further, the Activity in the experiment with FL5.12 [2] was 19%; with FL5.12 [3] it was 58%; in the experiment on FL5.12 [4], 1; with FL5.12 [5] it was 3.

Regarding `CCCCCCCCc1ccc([C@H]2CCN[C@@H]2COCCCN2c3ccccc3Oc3ccccc32)cc1.Cl`, in experiment [1], the IC50 amounted to 4.6 µM. The Activity with FL5.12 [2] came out at 4%; in the experiment with FL5.12 [3], 27%; with FL5.12 [4], 2; in the experiment with FL5.12 [5] it was 23. For the same compound, in the experiment filed under Mus musculus, the Ratio IC50 was in the range of 2 to 3.

For `CCCCCCCCc1ccc([C@H]2CCN[C@@H]2CO)cc1.Cl`, the IC50 in experiment [1] amounted to 1.8 µM. Further, the Activity with FL5.12 [2] was determined as 32%; with FL5.12 [3], 69%; in the experiment on FL5.12 [4] it was 46; with FL5.12 [5], 60.

Regarding `CCCCCCCCc1ccc([C@H]2CCN[C@@H]2COCCCCCN2c3ccccc3Oc3ccccc32)cc1.Cl`, the IC50 in experiment [1] stood at 8.6 µM. The Activity in the experiment on FL5.12 [3] was -3%; in the experiment with FL5.12 [6], 38%; in the experiment with FL5.12 [5], 16; in the experiment on FL5.12 [7], 66.

As to `CCCCCCCCc1ccc([C@H]2CCN[C@@H]2COCCCCCN2c3ccccc3Sc3ccccc32)cc1.Cl`, the IC50 in experiment [1] stood at 7.5 µM. The Activity in the experiment on FL5.12 [3] is -8%; in the experiment with FL5.12 [6], 29%; in the experiment with FL5.12 [5], 18; in the experiment with FL5.12 [7] it was 42.

In the case of `CCCCCCCCc1ccc([C@H]2CCN[C@@H]2COCCCCc2cccnc2)cc1.Cl`, in experiment [1], the concentration for half-maximal inhibition (IC50) was found to be 2.1 µM. Also, the Activity in the experiment with FL5.12 [2] was 40%; with FL5.12 [3] it was 64%; in the experiment with FL5.12 [4], 12; in the experiment on FL5.12 [5], 11.

`O=S(=O)(N[C@@H]1CCC[C@H](N2c3ccccc3Oc3ccccc32)[C@H]1O)c1ccc(OC(F)(F)F)cc1`: the IC50 in experiment [1] is 15.2 µM. In addition, the Activity was 7% in the experiment with FL5.12 [3], 31% in the experiment with FL5.12 [6], 0 with FL5.12 [5] and 11 in the experiment on FL5.12 [7].

In the case of `CCCCCCCCc1ccc([C@H]2CCN[C@@H]2COCCCC(O)c2cccnc2)cc1.Cl` (some centres not stated), the IC50 in experiment [1] amounted to 2.4 µM. Further, the Activity in the experiment on FL5.12 [2] amounted to 24%; in the experiment on FL5.12 [3], 51%; in the experiment with FL5.12 [4] it was 8; with FL5.12 [5], 17.
